From a melting point compilation (Tetko et al.; mined from patent text by program, amines drawn as free bases though some values may be those of a salt) come the findings set out here.

The term melting point denotes the temperature, or range, at which the solid turns liquid. As for `Cn1cc(C2=C(c3c4n(c5ccccc35)CCC(CO)C4)C(=O)NC2=O)c2ccccc21` (stereo unspecified), the melting point was in the range of 262 to 263 °C.
To `CCCc1ccc(-c2ncc(C#N)cn2)cc1` belongs 126 °C; to `CC(C)C(=O)N(Cc1ccccc1)c1nnn(C)n1`, 65 °C.
`O=C(NC1CCOCC1)NC12CC3CC(CC(C3)C1)C2` yielded a melting point of 239 to 242 °C.
For `O=C(c1ccccc1)N1CCC(CN2CCc3c([nH]c4ccccc34)C2)CC1` the value was 162 to 164 °C; for `CCC(CC(=O)O)c1ccc(C(=O)OC)cc1` (stereo unspecified), 165 to 166 °C; for `COc1cc2c(c3c1OC(C)(C)C3)C(c1cccc(Nc3ccccc3)c1)=NC(C)(C)C2`, 87 to 88 °C.
To `c1ccc2c(c1)CCc1nc(-c3ccncc3)oc1-2` belongs 129 to 130 °C.
To `CCNC(=O)[C@H](C)NC(=O)[C@H](C)NC(=O)CC` belongs 289 to 291 °C; to `CC(=O)c1ccc(-c2ccccc2)cc1O`, 90 to 92 °C; to `CC(C)(C)C(NC(=O)c1cccc(I)c1)Nc1c(Nc2cccnc2)c(=O)c1=O` (stereo unspecified), 234 to 236 °C.
Turning to `COc1ccc(OCC(O)CN2CCC(c3noc4cc(F)ccc34)CC2)cc1` (stereo unspecified), the melting point is 134 to 135 °C.
To `COCCN(C)c1nccc(Oc2ccc(NC(=O)c3cc(F)cc(N4CCCCC4)c3)c3ccccc23)n1` belongs 81 to 82 °C; to `Cc1oc(-c2ccccc2)nc1Cc1cc2cc(CCCC3OC(=O)NC3=O)ccc2o1` (stereo unspecified), 184 to 185 °C; to `O=C(Cc1ccccc1)N1CC2COCC2C1` (stereo unspecified), 47.5 to 48.5 °C.
The compound `COc1ccc2c(c1)NC(=O)C(CCO)O2` (stereo unspecified) showed a melting point of 111 to 113 °C.
`Clc1ccc2c3c(cccc13)-c1ccccc1-2` registered a melting point of 95 to 98 °C.
To `COc1cc(C(C)=O)ccc1OCCCN1CCC(c2noc3ccc(F)cc23)CC1` belongs 103 to 105 °C; to `CC(C)(C)OC(=O)c1ncn2c1cc(C(=O)N1CCNCC1)c1cc(Cl)ccc12`, 239 to 240 °C.
For `Clc1ccc(N2CCN(Cc3n[nH]c4c3CCc3ccccc3-4)CC2)nc1` the value was 207 to 208 °C; for `COc1cccc(NC(=O)/C=C(\C)c2cc3cccc(OCCCC(=O)O)c3o2)c1`, 156 to 158 °C; for `O=C1NC(=O)C(Nc2ccc(CCNCC(O)COc3cccc4ccccc34)cc2)S1` (stereo unspecified), 61 to 62 °C.
Compound `COc1cc(C)c(C=O)cc1OCc1ccccc1` registered a melting point of 107 to 109 °C.
To `CCNC(=O)OCc1cnc(C)c(OC(=O)NCC)c1` belongs 121 to 122 °C; to `CNC(=O)c1ccc(Cl)cc1`, 158 to 161 °C; to `O=C1NC(=O)C2(N1)C1CC3CC(C1)CC2C3` (stereo unspecified), 290 to 293 °C.
`Cc1cc(C)c(-n2c(C)cc(C)c(C#N)c2=O)cc1NS(=O)(=O)C(F)(F)F`: the melting point was 274 to 276 °C.
For `COc1c(NC(=O)Nc2ccc(-c3ccc(CN4CCOCC4)nc3)c3ccccc23)cc(C(C)(C)C)cc1NS(=O)(=O)c1ccccc1`, the melting point was 206 to 207 °C.
To `CCCN(C(=O)C=C(C)C)c1cccc(Br)c1` belongs 50 to 51 °C; to `CC(C)COc1cc(O)c2c(c1)OC(C)(C)CC2=O`, 77 to 79 °C.
As for `CCCC(=O)NCC1Cc2ccc(-c3ccc(=O)[nH]n3)cc2C1` (stereo unspecified), the melting point was in the range of 204 to 205 °C.
Regarding `COc1c(C)cc2[nH]c(S(=O)Cc3nccc(C)c3C)nc2c1C` (stereo unspecified), the melting point is 161 °C.
As for `O=C1C(CCO)Oc2ccc(C(F)(F)F)cc2N1Cc1cccc(Cl)c1` (stereo unspecified), the melting point lay in the range of 92 to 94 °C.
For `COc1cc2c(cc1OC)CC(NC(=O)N(C)O)CC2` (stereo unspecified) the value was 150 to 151 °C; for `OC(c1ccccc1)(c1ccc(Oc2ccccc2)cc1)c1ccccn1` (stereo unspecified), 114 °C.
For `CC(=O)Nc1cccc(-c2[nH]c3cccc4c3c2CCNC4=O)c1`, the melting point was in the range of 300 to 302 °C.
For `O=C(O)c1cccc(CCc2n[nH]c3c2c(=O)n(-c2ccccc2)c2ncccc32)c1` the value was 159 to 161 °C.
For `CC(C(N)=O)c1ccc2c(c1)C(=O)Cc1ccc(F)cc1S2` (stereo unspecified) the value was 176 to 178 °C; for `CCN(CC)C(=O)Nc1c(C)c(C)c2c(c1C)C(c1ccc(C(C)C)cc1)CO2` (stereo unspecified), 79 to 81 °C; for `CC(=O)N(CCCCN1CCN(c2csc3cc(F)ccc23)CC1)C(=O)C(C)C`, 98 to 99 °C.
Take `COc1ccc(-c2cncc(OC3SCC(O)C(O)C3O)c2)c(C)c1` (stereo unspecified): the melting point was determined as 231 °C.
To `CCOc1cc(C)c(NCCO)cc1[N+](=O)[O-]` belongs 119 °C.
Consider `CCC(=O)c1ccc(C#C[Si](C)(C)C)cc1`, for which the melting point lay in the range of 36 to 37 °C.
For `Clc1ccc(C2CN3CCN=C3c3ccccc32)cc1` (single isomer, unassigned; (-)) the value was 184 °C; for `C[C@H]1[C@H](O)C2(CC2)C(=O)N1c1ccc(C#N)c(Cl)c1`, 169 to 172 °C; for `Cc1noc(NS(=O)(=O)c2cccc3nsnc23)c1Br`, 177 to 179 °C.
For `O=C(O)COc1ccc(Cl)cc1-c1ccc(S(=O)(=O)N2CCOCC2)c(C(F)(F)F)c1` the value was 208 to 209 °C.
For `COc1ccc(-c2cc(O)n3nccc3n2)cc1OC` the value was 268 to 270 °C; for `Cn1nc(Br)c(Br)c1Br`, 85 to 86 °C; for `COCCCNC(=O)c1ccc(-c2cc(-c3c(-c4cccc(C)n4)nc4ccccn34)ccn2)cc1`, 165 °C.
Compound `COc1ccc(C=CC(=O)O)cc1-c1cc2c(cc1OCCCCCC(N)=O)C(C)(C)CCC2(C)C` gave a melting point of 133 to 135 °C.
